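These data come from cells grown in 96-well plates and exposed to compound for 48 hours at five concentrations. GI50 is the concentration that inhibits growth by half. Definition used: TGI = concentration required for complete inhibition of growth.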

For 12 compounds, TGI and GI50 results are on record in PubChem BioAssay (NCI).

Common to all, as to experiment: inhibition of tumour cell growth, NCI panel, 48 h
For assay [1], the system named is MOLT-4 leukemia.
The subject of assay [2] is SK-MEL-28 melanoma.
Assay [3] concerns SF-539 CNS.
Assay [4] has as its system TK-10 renal.
For assay [5], the system named is U251 CNS.
Assay [6] relates to SW-620 colon.
Assay [7] has as its system UO-31 renal.
Assay [8] relates to SK-MEL-2 melanoma.
For assay [9], the system named is NCI-H226 lung.
The subject of assay [10] is DU-145 prostate.

As for `COc1ccc([C@]23CCC4(OCC(C)(C)CO4)[C@H]4CON(O[C@H](O[C@@H]5CCCCC5C(C)(C)c5ccccc5)C2)[C@@H]43)cc1OC` (stereo not given in full), the TGI in [1] is 53.1 µM; in assay [2] it was more than 100 µM; in assay [3], 76.5 µM; in assay [4] it was more than 100 µM; in assay [5] it was more than 100 µM; in assay [6], more than 100 µM. Moreover, the TGI in [7], in assay [8], in assay [9] and in assay [10] was more than 100 µM in each case.

With `CCOC(=O)N1CCN(c2c(N)nc(C)[nH]c2=O)CC1`, the TGI in [1], in assay [2], in assay [3], in assay [4], in assay [5] and in assay [6] was more than 100 µM each time. Besides, the TGI in assay [7], in assay [8], in assay [9] and in assay [10] was more than 100 µM in each case.

In the case of `N#C/C(C(=O)NCc1ccccc1)=C(/N)N1CCCC1`, the TGI in [1], in assay [2], in assay [3], in [4], in [5] and in assay [6] was more than 100 µM in each case. Moreover, the TGI in assay [7], in [8], in assay [9] and in assay [10] was more than 100 µM in each case.

With `COc1ccc(C2c3cc4c(cc3OC(Nc3ccccc3)C2C)OCO4)cc1` (stereo not given), the TGI in assay [1], in [2], in [3], in assay [4], in assay [5] and in assay [6] was more than 100 µM each time. Besides, the TGI in assay [7], in assay [8], in assay [9] and in assay [10] was more than 100 µM in each case.

With `Cc1ccc(C)c(COCCOCn2cc(N3CCOCC3)c(=O)[nH]c2=O)c1`, the TGI in assay [1], in assay [2], in assay [3], in assay [4], in [5] and in assay [6] was more than 100 µM each time. In addition, the TGI in assay [7], in assay [8], in [9] and in [10] was more than 100 µM each time.

Turning to `O=C([C@H](O)[C@@H](O)c1cccc(Cl)c1)C12CC3CC(CC(C3)C1)C2`, the TGI in assay [1] was more than 100 µM; in assay [2] it was 12.6 µM; in assay [3], 3.61 µM; in assay [4] it was 3.69 µM; in assay [5], 2.98 µM; in [6] it was more than 45 µM. The TGI in assay [7] turned out to be 3.83 µM; in [8], 4.24 µM; in assay [9] it was 12.3 µM; in assay [10] it was 5.08 µM.

Regarding `NC(=O)C1CCN(Cc2c(Cl)c(Cl)c(CN3CCC(C(N)=O)CC3)c(Cl)c2Cl)CC1`, the TGI is more than 100 µM in [1]; more than 100 µM in assay [2]; 70.7 µM in [3]; more than 100 µM in [4]; more than 100 µM in assay [5]; more than 100 µM in assay [6]. For the same compound, the TGI in assay [7], in assay [8], in assay [9] and in assay [10] was more than 100 µM in each case.

Consider `CNC(=S)N1CCN(C(C)=O)C1=S`, for which the TGI in assay [1] is more than 100 µM; in [2], more than 100 µM; in assay [3], 52.8 µM; in assay [4] it was more than 100 µM; in assay [5], 17.2 µM; in [6] it was more than 100 µM. The TGI is more than 100 µM in [7], 5.36 µM in assay [8], 62 µM in assay [9] and more than 100 µM in [10].

For `CS(=O)(=O)Nc1ccc2ccccc2c1`, the TGI in [1], in [2], in assay [3], in assay [4], in assay [5] and in assay [6] was more than 100 µM in each case. Besides, the TGI in assay [7], in [8], in assay [9] and in [10] was more than 100 µM each time.

For the compound `O=C(Nc1nn(C(=O)c2cccnc2)c(=O)s1)c1ccc(Cl)cc1`, the TGI is more than 100 µM in assay [1]; more than 100 µM in assay [2]; 95.4 µM in assay [3]; more than 100 µM in assay [4]; more than 100 µM in [5]; more than 100 µM in assay [6]. Also, the TGI in assay [7] is 78.9 µM; in assay [8] it was more than 100 µM; in assay [9], 77.2 µM; in assay [10], more than 100 µM.

As for `CCN(CC)CCCCNc1c2ccc(Cl)cc2nc2ccc(OC)cc12`, the GI50 in assay [1] is 0.306 µM; in assay [2], 1.71 µM; in assay [3], 1.19 µM; in [4], 0.925 µM; in [5] it was 0.45 µM; in assay [6] it was 0.277 µM. The GI50 in [7] is 0.759 µM; in assay [8] it was 1.15 µM; in [9], 1.32 µM; in assay [10] it was 0.34 µM. The TGI in assay [1] was 2.79 µM; in assay [2], 3.2 µM; in assay [3] it was 2.73 µM; in assay [4], 4.59 µM; in assay [5] it was 2.16 µM; in assay [6] it was 2.12 µM. The TGI in assay [7] turned out to be 3.31 µM; in assay [8], 3.31 µM; in [9] it was 3.35 µM; in [10] it was 1.62 µM.

With `CC(=N/NC(=S)N(C)C)/C(=N\NC(=S)N(C)C)c1ccccc1`, the TGI is more than 100 µM in assay [1]; 4.03 µM in [2]; 25.8 µM in assay [3]; 3 µM in assay [4]; 7.96 µM in assay [5]; 3.97 µM in assay [6]. Also, the TGI in [7] was 6.21 µM; in assay [8], 4.69 µM; in [9] it was 3.13 µM; in assay [10], 10.6 µM.
